In ChEMBL document CHEMBL4321865, “Discovery of Novel Inhibitors of LpxC Displaying Potent in Vitro Activity against Gram-Negative Bacteria” (J Med Chem, 2020):
Values after ≈ are worked out from the molar mass of the structure shown.

Tests used:
[1] = tested on: T1, UDP-3-O-acyl-N-acetylglucosamine deacetylase (Escherichia coli K-12), P0A725 [C125S]
T1 sequence (whole entry): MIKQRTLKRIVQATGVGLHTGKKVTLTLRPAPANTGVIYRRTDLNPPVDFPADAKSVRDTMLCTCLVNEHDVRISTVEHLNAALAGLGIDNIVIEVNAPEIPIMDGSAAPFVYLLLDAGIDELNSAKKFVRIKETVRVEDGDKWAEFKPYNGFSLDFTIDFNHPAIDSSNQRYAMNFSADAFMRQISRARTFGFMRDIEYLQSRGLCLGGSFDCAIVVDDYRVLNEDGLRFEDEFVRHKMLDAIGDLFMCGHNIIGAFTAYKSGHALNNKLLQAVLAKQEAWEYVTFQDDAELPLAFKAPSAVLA

[2] = tested on: T2, UDP-3-O-acyl-N-acetylglucosamine deacetylase (Pseudomonas aeruginosa (strain ATCC 15692 / PAO1 / 1C / PRS 101 / LMG12228)), P47205 [C40S]
T2 sequence (whole entry): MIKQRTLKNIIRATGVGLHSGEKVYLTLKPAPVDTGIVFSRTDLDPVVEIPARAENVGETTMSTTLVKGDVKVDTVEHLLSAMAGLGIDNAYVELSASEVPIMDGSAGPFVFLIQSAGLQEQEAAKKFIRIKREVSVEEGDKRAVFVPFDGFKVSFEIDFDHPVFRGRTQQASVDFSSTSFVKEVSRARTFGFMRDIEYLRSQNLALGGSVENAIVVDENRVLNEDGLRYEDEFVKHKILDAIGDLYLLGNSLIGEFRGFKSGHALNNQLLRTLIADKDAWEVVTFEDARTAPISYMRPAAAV

physchem [3] = conditions: n-octanol/phosphate buffered saline, pH 7.4
Description: n-Octanol/phosphate buffered saline partition coefficient, log D of the compound at pH 7.4 by LC-UV method

physchem [4] = conditions: DMSO, pH 7
Description: Solubility of the compound in DMSO at pH 7 incubated for 24 hrs by LC-UV method

physchem [5] = conditions: DMSO, pH 9
Description: Solubility of the compound in DMSO at pH 9 incubated for 24 hrs by LC-UV method

physchem [6] = conditions: DMSO, pH 4
Description: Solubility of the compound in DMSO at pH 4 incubated for 24 hrs by LC-UV method

Escherichia coli = experiment: microbe, parasite or virus in culture; conditions: ATCC 25922
Description: Antibacterial activity against wild-type Escherichia coli ATCC 25922 by broth microdilution method

Klebsiella pneumoniae = experiment: microbe, parasite or virus in culture; conditions: T 6474
Description: Antibacterial activity against multi-drug resistant Klebsiella pneumoniae T 6474 by broth microdilution method

Pseudomonas aeruginosa [7] = experiment: microbe, parasite or virus in culture; conditions: ATCC 27853
Description: Antimicrobial activity against Pseudomonas aeruginosa ATCC 27853 by broth microdilution method

Pseudomonas aeruginosa [8] = experiment: microbe, parasite or virus in culture; conditions: PAO1
Description: Antimicrobial activity against wild-type Pseudomonas aeruginosa PAO1 by broth microdilution method

SMILES	ΔTm [1]	ΔTm [2]	logD (physchem [3])	solubility at 24 h (physchem [4])	solubility at 24 h (physchem [5])	solubility at 24 h (physchem [6])	MIC (Escherichia coli)	MIC (Klebsiella pneumoniae)	MIC (Pseudomonas aeruginosa [7])	MIC (Pseudomonas aeruginosa [8])
CC(C)(O)C#CC#Cc1cc2n(c1)C(=O)N(CC[C@](C)(C(=O)NO)S(C)(=O)=O)C2	9.9 °C	12.3 °C	0.9	> 710 µg/mL	> 710 µg/mL	398 µg/mL (≈ 944 µM)	0.5 µg/mL (≈ 1.19 µM)	1 µg/mL (≈ 2.37 µM)	1 µg/mL (≈ 2.37 µM)	2 µg/mL (≈ 4.75 µM)
CC(C)(O)C#CC#Cc1cc2c(s1)C(=O)N(CC[C@](C)(C(=O)NO)S(C)(=O)=O)C2	9.9 °C	13.6 °C	1.2	> 740 µg/mL	> 740 µg/mL	> 740 µg/mL	0.5 µg/mL (≈ 1.14 µM)	2 µg/mL (≈ 4.56 µM)	1 µg/mL (≈ 2.28 µM)	2 µg/mL (≈ 4.56 µM)
C[C@@](CCN1Cc2cc(C#Cc3ccc([C@H]4C[C@@H]4CO)cc3)cn2C1=O)(C(=O)NO)S(C)(=O)=O	12.1 °C	13.4 °C	1.4	24 µg/mL (≈ 49.4 µM)	170 µg/mL (≈ 350 µM)	11 µg/mL (≈ 22.7 µM)	≤ 0.06 µg/mL	≤ 0.06 µg/mL	0.5 µg/mL (≈ 1.03 µM)	1 µg/mL (≈ 2.06 µM)
C[C@@](CCN1Cc2cc(C#Cc3ccc(CN4CCOCC4)cc3)cn2C1=O)(C(=O)NO)S(C)(=O)=O	11.9 °C	13.6 to 13.9 °C	1.6	68 µg/mL (≈ 132 µM)	621 µg/mL (≈ 1210 µM)	802 µg/mL (≈ 1560 µM)	–	0.25 µg/mL (≈ 0.486 µM)	1 µg/mL (≈ 1.94 µM)	1 µg/mL (≈ 1.94 µM)
C[C@@](CCN1Cc2cc(C#Cc3ccc(CNS(C)(=O)=O)cc3)cn2C1=O)(C(=O)NO)S(C)(=O)=O	11.2 °C	13.2 °C	1	3 µg/mL (≈ 5.74 µM)	56 µg/mL (≈ 107 µM)	1 µg/mL (≈ 1.91 µM)	0.25 µg/mL (≈ 0.478 µM)	0.5 µg/mL (≈ 0.957 µM)	1 µg/mL (≈ 1.91 µM)	1 µg/mL (≈ 1.91 µM)
C[C@@](CCN1Cc2cc(C#Cc3ccc(COC(=O)N4CCC(O)CC4)cc3)cn2C1=O)(C(=O)NO)S(C)(=O)=O	11.8 °C	14.2 °C	1.7	15 µg/mL (≈ 26.2 µM)	251 µg/mL (≈ 438 µM)	< 1 µg/mL	0.25 µg/mL (≈ 0.437 µM)	0.5 µg/mL (≈ 0.873 µM)	2 µg/mL (≈ 3.49 µM)	2 µg/mL (≈ 3.49 µM)
C[C@@](CCN1Cc2cc(C#Cc3ccc(C4(O)COC4)cc3)cn2C1=O)(C(=O)NO)S(C)(=O)=O	10.8 °C	13 °C	1.2	> 820 µg/mL	> 820 µg/mL	195 µg/mL (≈ 400 µM)	0.12 µg/mL (≈ 0.246 µM)	0.5 µg/mL (≈ 1.03 µM)	0.5 µg/mL (≈ 1.03 µM)	1 µg/mL (≈ 2.05 µM)
C[C@@](CCN1Cc2cc(C#CC#C[C@H]3C[C@@H]3CO)sc2C1=O)(C(=O)NO)S(C)(=O)=O	12.2 °C	15 °C	1.3	603 µg/mL (≈ 1340 µM)	> 760 µg/mL	522 µg/mL (≈ 1160 µM)	0.15 µg/mL (≈ 0.333 µM)	0.25 µg/mL (≈ 0.555 µM)	0.5 µg/mL (≈ 1.11 µM)	0.5 µg/mL (≈ 1.11 µM)
C[C@@](CCN1Cc2cc(C#CC#C[C@H](O)CO)cn2C1=O)(C(=O)NO)S(C)(=O)=O	7.3 °C	10.3 °C	–	–	–	–	8 µg/mL (≈ 18.9 µM)	8 µg/mL (≈ 18.9 µM)	4 µg/mL (≈ 9.45 µM)	8 µg/mL (≈ 18.9 µM)
C[C@@](CCN1Cc2cc(C#CC#CC3(N)CC3)sc2C1=O)(C(=O)NO)S(C)(=O)=O.Cl	10 °C	12.5 °C	1	207 µg/mL	> 740 µg/mL	> 740 µg/mL	0.25 µg/mL	0.5 µg/mL	1 µg/mL	1 µg/mL
C[C@@](CCN1Cc2cc(C#CC#C[C@@H]3C[C@H]3CO)cn2C1=O)(C(=O)NO)S(C)(=O)=O	10.8 °C	13.6 °C	–	–	–	600 µg/mL (≈ 1380 µM)	0.12 µg/mL (≈ 0.277 µM)	0.25 µg/mL (≈ 0.577 µM)	0.5 µg/mL (≈ 1.15 µM)	0.5 µg/mL (≈ 1.15 µM)
C[C@@](CCN1Cc2cc(C#CC#CC3(O)COC3)ccc2C1=O)(C(=O)NO)S(C)(=O)=O	7 °C	11.6 °C	–	–	–	–	16 µg/mL (≈ 35.8 µM)	8 µg/mL (≈ 17.9 µM)	8 µg/mL (≈ 17.9 µM)	4 µg/mL (≈ 8.96 µM)
C[C@@](CCN1Cc2cc(C#Cc3ccc(C4(O)COC4)cc3)sc2C1=O)(C(=O)NO)S(C)(=O)=O	11.4 °C	14.3 °C	1.5	> 850 µg/mL	> 850 µg/mL	114 µg/mL (≈ 226 µM)	0.12 µg/mL (≈ 0.238 µM)	0.5 µg/mL (≈ 0.991 µM)	0.5 µg/mL (≈ 0.991 µM)	2 µg/mL (≈ 3.96 µM)
C[C@@](CCN1Cc2cc(C#CC#CC3(CO)CC3)sc2C1=O)(C(=O)NO)S(C)(=O)=O	10.9 °C	14.2 °C	1.2	> 760 µg/mL	> 760 µg/mL	443 µg/mL (≈ 983 µM)	1 µg/mL (≈ 2.22 µM)	1 µg/mL (≈ 2.22 µM)	1 µg/mL (≈ 2.22 µM)	1 µg/mL (≈ 2.22 µM)
C[C@@](CCN1Cc2cc(C#CC#CCNS(C)(=O)=O)cn2C1=O)(C(=O)NO)S(C)(=O)=O	8 °C	10.8 °C	–	–	–	–	2 µg/mL (≈ 4.25 µM)	4 µg/mL (≈ 8.5 µM)	4 µg/mL (≈ 8.5 µM)	1 µg/mL (≈ 2.13 µM)
C[C@@](CCN1Cc2cc(C#Cc3ccc(CN4CCOCC4)cc3)sc2C1=O)(C(=O)NO)S(C)(=O)=O	13 °C	15.5 °C	1.8	155 µg/mL (≈ 292 µM)	571 µg/mL (≈ 1070 µM)	> 900 µg/mL	≤ 0.06 µg/mL	0.12 µg/mL (≈ 0.226 µM)	1 µg/mL (≈ 1.88 µM)	1 µg/mL (≈ 1.88 µM)
C[C@@](CCN1Cc2cc(C#Cc3ccc(CN4CCOCC4)cc3)ccc2C1=O)(C(=O)NO)S(C)(=O)=O	11 °C	13.8 °C	1.8	148 µg/mL (≈ 282 µM)	> 890 µg/mL	> 890 µg/mL	0.12 µg/mL (≈ 0.228 µM)	0.5 µg/mL (≈ 0.951 µM)	2 µg/mL (≈ 3.8 µM)	2 µg/mL (≈ 3.8 µM)
CC(C)(O)c1ccc(C#Cc2cc3n(c2)C(=O)N(CC[C@](C)(C(=O)NO)S(C)(=O)=O)C3)cc1	11.8 °C	13.7 °C	1.9	110 µg/mL (≈ 232 µM)	556 µg/mL (≈ 1170 µM)	70 µg/mL (≈ 148 µM)	0.12 µg/mL (≈ 0.253 µM)	0.25 µg/mL (≈ 0.528 µM)	0.5 µg/mL (≈ 1.06 µM)	1 µg/mL (≈ 2.11 µM)
C[C@@](CCN1Cc2cc(C#CC#CCOC(=O)N3CCC(O)CC3)cn2C1=O)(C(=O)NO)S(C)(=O)=O	9.4 °C	12.9 °C	0.9	785 µg/mL (≈ 1510 µM)	> 880 µg/mL	641 µg/mL (≈ 1230 µM)	0.5 µg/mL (≈ 0.96 µM)	1 µg/mL (≈ 1.92 µM)	2 µg/mL (≈ 3.84 µM)	2 µg/mL (≈ 3.84 µM)
CC(C)(O)c1ccc(C#Cc2cc3c(s2)C(=O)N(CC[C@](C)(C(=O)NO)S(C)(=O)=O)C3)cc1	13 °C	15.5 °C	2.1	83 µg/mL (≈ 169 µM)	613 µg/mL (≈ 1250 µM)	69 µg/mL (≈ 141 µM)	0.12 µg/mL (≈ 0.245 µM)	0.25 µg/mL (≈ 0.51 µM)	0.5 µg/mL (≈ 1.02 µM)	1 µg/mL (≈ 2.04 µM)
C[C@@](CCN1Cc2cc(C#CC#CC3(O)COC3)cn2C1=O)(C(=O)NO)S(C)(=O)=O	8.8 °C	11.3 °C	0.3	> 740 µg/mL	> 740 µg/mL	> 740 µg/mL	1 µg/mL (≈ 2.3 µM)	2 µg/mL (≈ 4.59 µM)	2 µg/mL (≈ 4.59 µM)	4 µg/mL (≈ 9.19 µM)
C[C@@](CCN1Cc2cc(C#Cc3ccc([C@H](O)CO)cc3)sc2C1=O)(C(=O)NO)S(C)(=O)=O	12.1 °C	14.3 °C	0.8	300 µg/mL (≈ 609 µM)	814 µg/mL (≈ 1650 µM)	230 µg/mL (≈ 467 µM)	0.5 µg/mL (≈ 1.02 µM)	1 µg/mL (≈ 2.03 µM)	1 µg/mL (≈ 2.03 µM)	2 µg/mL (≈ 4.06 µM)
C[C@@](CCN1Cc2cc(C#CC#C[C@@H]3C[C@H]3CO)sc2C1=O)(C(=O)NO)S(C)(=O)=O	11.2 °C	15 °C	1.3	377 µg/mL (≈ 837 µM)	380 µg/mL (≈ 843 µM)	464 µg/mL (≈ 1030 µM)	0.12 µg/mL (≈ 0.266 µM)	0.25 µg/mL (≈ 0.555 µM)	0.5 µg/mL (≈ 1.11 µM)	0.5 µg/mL (≈ 1.11 µM)
C[C@@](CCN1Cc2cc(C#CC#CC3(O)COC3)sc2C1=O)(C(=O)NO)S(C)(=O)=O	7.4 °C	12.2 °C	0.5	> 760 µg/mL	> 760 µg/mL	> 760 µg/mL	2 µg/mL (≈ 4.42 µM)	4 µg/mL (≈ 8.84 µM)	4 µg/mL (≈ 8.84 µM)	4 µg/mL (≈ 8.84 µM)
C[C@@](CCN1Cc2cc(C#Cc3ccc([C@@H]4C[C@H]4CO)cc3)cn2C1=O)(C(=O)NO)S(C)(=O)=O	12.1 °C	13.4 °C	2	112 µg/mL (≈ 231 µM)	568 µg/mL (≈ 1170 µM)	73 µg/mL (≈ 150 µM)	≤ 0.06 µg/mL	≤ 0.06 µg/mL	0.5 µg/mL (≈ 1.03 µM)	1 µg/mL (≈ 2.06 µM)
